Values after ≈ are worked out from the molar mass of the structure shown.
Assay: Solubility of the compound at pH 6.8
Type: physicochemical
Details: buffer

Row | solubility | SMILES
1 | < 0.5 µM | CC(C)CC1n2cncc2CN(Cc2ccc(F)cc2)S1(=O)=O (configuration not stated)
2 | 500 µM (≈ 192 µg/mL) | C[C@@H](c1ccc(Cl)cc1)N1Cc2cncn2C(CC(C)(C)O)S1(=O)=O (some centres not stated)

Source: ChEMBL document CHEMBL1208751 (Bioorg Med Chem Lett, 2010)
